{"source": "patent US20070128193A1", "about": "“GLP-1 agonists, compositions, methods and uses” (priority 2004, published 2007)", "key": {"[1]": {"conditions": "administered subcutaneously; cited from earlier work"}, "[2]": {"system": "RINm cells", "experiment": "Insulin secretion in RINm cells", "format": "cell-based", "conditions": "peptides 0-5 nM; mimetibodies 5 or 50 nM", "experimental": "GLP-1 mimetibody causes insulin secretion in RINm cells. To test the effect of GLP-1 mimetibody in insulin secretion, RINm cells were treated with increasing concentrations of GLP-1 (7-36) peptide (0-5 nM) (FIG. 6A), exendin-4 peptide (0-5 nM) (FIG. 6A), or various GLP-1 mimetibodies (5 or 50 nM) and the amount of insulin secreted was measured via ELISA. All GLP-1 mimetibodys tested had activities in stimulating insulin secretion in RINm cells."}, "[3]": {"system": "control HEK293 cells", "experiment": "FACS binding assay, control HEK293 cells", "conditions": "20 nM, 2 hours at 4° C."}, "[4]": {"target": "T1, GLP-1R (Homo sapiens, UniProt P43220)", "T1 construct": "expressed in transfected cells; host or cells: HEK293", "T1 sequence (P43220 24-463, species assumed)": "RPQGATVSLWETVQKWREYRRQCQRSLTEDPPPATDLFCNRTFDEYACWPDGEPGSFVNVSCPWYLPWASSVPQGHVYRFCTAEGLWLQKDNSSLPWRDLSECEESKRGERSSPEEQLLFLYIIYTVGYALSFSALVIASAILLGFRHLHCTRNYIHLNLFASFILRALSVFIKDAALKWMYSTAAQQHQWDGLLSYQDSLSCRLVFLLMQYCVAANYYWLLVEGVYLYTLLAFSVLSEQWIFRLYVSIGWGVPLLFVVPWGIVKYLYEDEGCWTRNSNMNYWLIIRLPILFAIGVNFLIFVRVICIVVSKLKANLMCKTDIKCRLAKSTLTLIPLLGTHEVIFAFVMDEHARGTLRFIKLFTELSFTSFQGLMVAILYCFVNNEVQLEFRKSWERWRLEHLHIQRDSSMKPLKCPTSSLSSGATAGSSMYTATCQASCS", "experiment": "FACS binding assay, HEK293 cells over-expressing GLP-1R", "conditions": "20 nM, 2 hours at 4° C.", "experimental": "FACS Binding Assay. The activity of GLP-1 mimetibody was tested in an in vitro FACS binding assay. To determine whether the GLP-1 mimetibody binds GLP-1R, HEK293 cells (1×10^6 cells) over-expressing GLP-1R were incubated with GLP-1 mimetibody (20 nM) for 2 hours at 4° C. The cells were washed, and a fluorescently labeled secondary detection antibody (1 μg/mL goat anti-human IgG, Fc gamma specific) was added for 30 minutes at 4° C. The fluorescence intensity of the cells was monitored via flow cytometry."}, "[5]": {"system": "db/db mice", "experiment": "Fasting blood glucose in db/db mice", "format": "in vivo", "experimental": "GLP-1 mimetibody lowers glucose level in db/db mice. […] Blood glucose was monitored 0.5, 1, 2, 3, and 4 hours post-dosing. […] In addition, consistent with the mechanism of action for GLP-1, the maximum glucose lowering effect achieved at 0.19 nmol was not enhanced by a higher dose of the GLP-1 mimetibody (1.9 nmol). The maximum glucose lowering effect maintained blood glucose values within the normal range."}, "[6]": {"target": "T2, DPP-IV (Homo sapiens, UniProt P27487)", "T2 construct": "purchased R&D Systems", "T2 sequence (P27487 whole entry, species assumed)": "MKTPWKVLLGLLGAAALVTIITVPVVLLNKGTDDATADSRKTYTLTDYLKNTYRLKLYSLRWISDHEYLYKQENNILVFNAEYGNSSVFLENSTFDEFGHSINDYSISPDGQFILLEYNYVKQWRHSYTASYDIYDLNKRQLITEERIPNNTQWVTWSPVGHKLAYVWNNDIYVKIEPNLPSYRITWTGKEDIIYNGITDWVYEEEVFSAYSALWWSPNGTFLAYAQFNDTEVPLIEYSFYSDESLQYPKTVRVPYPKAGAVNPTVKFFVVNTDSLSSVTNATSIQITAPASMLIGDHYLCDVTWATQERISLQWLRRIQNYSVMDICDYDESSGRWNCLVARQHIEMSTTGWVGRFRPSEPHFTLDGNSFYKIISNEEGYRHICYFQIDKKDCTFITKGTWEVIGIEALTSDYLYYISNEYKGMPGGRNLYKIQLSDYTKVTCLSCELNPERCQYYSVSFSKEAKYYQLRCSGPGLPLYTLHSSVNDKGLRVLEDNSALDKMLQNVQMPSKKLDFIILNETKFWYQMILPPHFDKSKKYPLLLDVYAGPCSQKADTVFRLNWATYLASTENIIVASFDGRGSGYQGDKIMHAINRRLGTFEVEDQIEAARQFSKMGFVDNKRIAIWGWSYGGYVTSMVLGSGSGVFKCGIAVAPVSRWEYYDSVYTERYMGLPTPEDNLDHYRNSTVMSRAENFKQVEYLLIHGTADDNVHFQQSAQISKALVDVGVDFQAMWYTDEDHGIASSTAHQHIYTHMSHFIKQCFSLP", "experiment": "DPP-IV cleavage assay", "format": "in vitro ADME", "conditions": "1.2 nM, DPP-IV 1 μg/mL, room temperature, 0-40 minutes", "experimental": "DPP-IV cleavage assay. Since GLP-1 is rapidly inactivated by DPP-IV, an in vitro assay was established to quantitate intact (i.e. uncleaved) GLP-1 mimetibody. Briefly, GLP-1 mimetibody or peptide (1.2 nM) was incubated at room temperature with DPP-IV (1 μg/mL, R&D Systems). After various times (0, 5, 10, 15, 20, 30, 40 minutes), a DPP-IV inhibitor (100 μM, Linco) was added to quench the reaction. The amount of intact GLP-1 mimetibody or peptide was measured using the GLP-1 Active ELISA (Linco) and the GLP-1 mimetibody or peptides for the respective standard curves."}, "[7]": {"experiment": "Human serum stability assay", "format": "in vitro ADME", "conditions": "30 nM, 37° C.", "experimental": "Human Serum stability assay. The stability of the GLP-1 mimetibody in serum was also measured to ensure that other serum proteases were not able to cleave and inactivate the GLP-1 mimetibody. Briefly, GLP1 peptide or the GLP1 mimetibody (30 nM) was incubated in human serum at 37° C. After various times, samples were evaluated to determine the amount of intact peptide or mimetibody. The reactions were quenched with a DPP-IV inhibitor (100 μM, Linco), and the samples were analyzed using the GLP-1 Active ELISA from Linco."}}, "note": "Where no end group is shown, it is not given here.", "data": [{"substance": "GLP-1 (7-36) amide: GLP-1 (7-36) amide", "values": [{"measurement": "time action", "setting": "[1]", "result": "about 50 minutes"}]}, {"substance": "GLP-1 (7-36) peptide: wild-type GLP-1 (7-36) peptide (HAEGTFTSDVSSYLEGQAAKEFIAWLVKGR; ends and bridges not checked; UniProt P01275 98-127, looked up, fragment)", "values": [{"measurement": "stimulation of insulin secretion in RINm cells", "setting": "[2]", "result": "stimulates insulin release in RINm cells"}]}, {"substance": "GLP-1 mimetibody: GLP-1 peptide (7-36), Gly-Ser linker, J region, IgG1 hinge, CH2 and CH3 construct (SEQ ID NO:2)", "values": [{"measurement": "binding to control HEK293 cells (FACS)", "setting": "[3]", "result": "not to control HEK293 cells"}, {"measurement": "binding to HEK293 cells over-expressing GLP-1R (FACS)", "setting": "[4]", "result": "binds to HEK293 cells over-expressing GLP-1R"}, {"measurement": "lowering of fasting blood glucose compared to control animals", "setting": "[5]; doses ranging from 0.019 to 1.9 nmol", "result": "effective in lowering the fasting blood glucose"}, {"measurement": "dose at which maximum glucose lowering effect was achieved", "setting": "[5]; not enhanced by 1.9 nmol", "result": 0.19, "unit": "nmol"}, {"measurement": "resistance to cleavage by DPP-IV relative to the GLP-1 peptide", "setting": "[6]", "result": "significantly more resistant to cleavage by DPP-IV"}, {"measurement": "remained intact in human serum after 24 hours", "setting": "[7]", "result": "> 90", "unit": "%"}]}, {"substance": "GLP-1 peptide: GLP-1 peptide used as comparator [reference compound]", "values": [{"measurement": "blood glucose over 4 hours post-dosing", "setting": "[5]; db/db mice fasted two hours, intravenous, mimetibody dose 100-fold lower than peptide dose", "result": "lowered blood glucose at 30 minutes, but by 60 minutes, the blood glucose began to increase again"}]}, {"substance": "exendin-4 peptide: exendin-4 peptide, positive control", "values": [{"measurement": "stimulation of insulin secretion in RINm cells", "setting": "[2]", "result": "stimulates insulin release in RINm cells"}]}]}
